Test results from patent US20060030600A1, “Dual NK1/NK3 receptor antagonists for the treatment of schizophrenia” (priority 2004, published 2006).

Key:
human NK1 receptor = human NK1 receptor (Homo sapiens, UniProt P25103); assay: NK1 receptor affinity, [3H]substance P binding; conditions: human NK1 receptors in CHO cells, [3H]substance P 0.6 nM; read-out: pki NK1 (converted)
Description: The affinity of test compounds for the NK1 receptor was evaluated at human NK1 receptors in CHO cells infected with the human NK1 receptor (using the Semliki virus expression system) and radiolabelled with [^3H]substance P (final concentration 0.6 nM). Binding assays were performed in HEPES buffer (50 mM, pH 7.4) containing BSA (0.04%) leupeptin (16.8 μg/ml), MnCl2 (3mM) and phosphoramidon (2 μM). Binding assays consisted of 250 μl of membrane suspension (approximately 1.5 μg/well in a 96 well plate), […] of buffer of displacing agent and 125 μl of [^3H]substance P. Displacement curves were determined with at least seven concentrations of the compound. The assay tubes were incubated for 60 min at room temperature after which time the tube contents were rapidly filtered under vacuum through GF/C filters presoaked for 60 min with PEI (0.3%) with 3×1 ml washes of HEPES buffer (50 mM, pH 7.4). The radioactivity retained on the filters was measured by scintillation counting. All assays were performed in duplicate in at least 2 separate experiments.

[1] = target: T1, Recombinant human NK3 (hNK3) receptor (Homo sapiens, UniProt P29371); assay: NK3 receptor affinity, [3H]SR142801 binding; conditions: hNK3 receptor membranes, [3H]SR142801 0.3 nM; read-out: pki NK3 (converted)
T1 construct: expressed in transfected cells
T1 sequence (P29371 1-465): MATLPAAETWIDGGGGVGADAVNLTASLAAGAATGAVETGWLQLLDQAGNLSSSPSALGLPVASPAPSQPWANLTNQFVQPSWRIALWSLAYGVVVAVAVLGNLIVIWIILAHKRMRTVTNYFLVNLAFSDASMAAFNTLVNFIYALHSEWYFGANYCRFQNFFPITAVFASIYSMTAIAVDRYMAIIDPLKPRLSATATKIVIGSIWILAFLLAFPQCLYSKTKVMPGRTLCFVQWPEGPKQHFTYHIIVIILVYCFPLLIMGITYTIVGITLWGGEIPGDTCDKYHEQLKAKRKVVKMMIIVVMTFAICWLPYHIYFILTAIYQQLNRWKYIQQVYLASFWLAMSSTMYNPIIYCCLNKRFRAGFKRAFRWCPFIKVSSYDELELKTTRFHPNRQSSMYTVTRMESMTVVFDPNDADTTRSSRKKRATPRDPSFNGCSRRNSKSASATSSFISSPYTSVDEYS
Description: Recombinant human NK3 (hNK3) receptor affinity was determined in a 96 well plate assay, using [^3H]SR142801 (final concentration 0.3 nM) to radiolabel the hNK3 receptor in the presence of 10 concentrations of competing compound or buffer. Non specific binding was determined using 10 μM SB222200. Assay buffer consisted of Tris-HCl (50 mM, pH 7.4), BSA (0.1%), MnCl2 (4 mM) and phosphoramidon (1 μM). Membrane preparations of hNK3 receptors (approximately 2.5 μg/well in a 96 well plate) were used to initiate the incubation for 90 min at room temperature. This assay was terminated by rapid filtration under vacuum through GF/C filters, presoaked for 90 min with PEI (0.3%), with 3×0.5 ml washes of ice-cold Tris buffer (50 mM, pH 7.4) containing 0.1% BSA. The radioactivity retained on the filters was measured by scintillation counting. All assays were performed in duplicate in at least two separate experiments.

[2] = phase II trial, cited from earlier work

human NK1 receptor, sequence (P25103 whole entry): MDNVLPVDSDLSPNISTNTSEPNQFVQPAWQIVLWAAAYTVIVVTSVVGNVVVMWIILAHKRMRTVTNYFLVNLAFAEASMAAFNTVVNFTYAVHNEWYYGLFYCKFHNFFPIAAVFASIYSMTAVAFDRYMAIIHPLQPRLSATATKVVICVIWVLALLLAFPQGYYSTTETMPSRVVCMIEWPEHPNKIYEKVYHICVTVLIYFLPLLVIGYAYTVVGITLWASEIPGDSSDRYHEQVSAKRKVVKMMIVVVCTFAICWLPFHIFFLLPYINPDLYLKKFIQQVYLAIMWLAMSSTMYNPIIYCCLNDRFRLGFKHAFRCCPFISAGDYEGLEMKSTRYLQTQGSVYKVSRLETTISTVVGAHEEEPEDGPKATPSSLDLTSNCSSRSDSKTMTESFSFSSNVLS

Ki (human NK1 receptor)	Ki [1]	Compound	activity on positive symptoms of schizophrenia ([2]; altered behaviour, delusion, hallucinations, extreme emotions, excited motor activity, incoherent speech)	activity on negative symptoms of schizophrenia ([2]; depression, anhedonia, social isolation or memory and attention deficits)
0.589 nM	6.76 nM	Cc1cc(F)ccc1-c1cc(C2=CCS(=O)(=O)CC2)ncc1N(C)C(=O)C(C)(C)c1cc(C(F)(F)F)cc(C(F)(F)F)c1 [Example 15, 2-(3,5-Bis-trifluoromethyl-phenyl)-N-[6-(1,1-dioxo-1,2,3,6-tetrahydro-1λ^6-thiopyran-4-yl)-4-(4-fluoro-2-methyl-phenyl)-pyridin-3-yl]-N-methyl-isobutyramide]	–	–
1.38 nM	16.6 nM	Cc1cc(F)ccc1-c1cc(C2CCS(=O)(=O)CC2)ncc1N(C)C(=O)C(C)(C)c1cc(C(F)(F)F)cc(C(F)(F)F)c1 [Example 16, 2-(3,5-Bis-trifluoromethyl-phenyl)-N-[6-(1,1-dioxo-hexahydro-1λ^6-thiopyran-4-yl)-4-(4-fluoro-2-methyl-phenyl)-pyridin-3-yl]-N-methyl-isobutyramide]	–	–
1.82 nM	6.17 nM	Cc1cc(F)ccc1-c1cc(-c2cncc(CO)c2)ncc1N(C)C(=O)C(C)(C)c1cc(C(F)(F)F)cc(C(F)(F)F)c1 [Example 8, 2-(3,5-Bis-trifluoromethyl-phenyl)-N-[4-(4-fluoro-2-methyl-phenyl)-5′-hydroxymethyl-[2,3′]bipyridinyl-5-yl]-N-methyl-isobutyramide]	–	–
1.55 nM	11.5 nM	Cc1cc(F)ccc1-c1cc(-c2ccnc(CO)c2)ncc1N(C)C(=O)C(C)(C)c1cc(C(F)(F)F)cc(C(F)(F)F)c1 [Example 9, 2-(3,5-Bis-trifluoromethyl-phenyl)-N-[4-(4-fluoro-2-methyl-phenyl)-2′-hydroxymethyl-[2,4′]bipyridinyl-5-yl]-N-methyl-isobutyramide]	–	–
0.851 nM	23.4 nM	Cc1cc(F)ccc1-c1cc(OC[C@@H]2CCCN2)ncc1N(C)C(=O)C(C)(C)c1cc(C(F)(F)F)cc(C(F)(F)F)c1 [Example 3, (S)-2-(3,5-Bis-trifluoromethyl-phenyl)-N-[4-(4-fluoro-2-methyl-phenyl)-6-(pyrrolidin-2-ylmethoxy)-pyridin-3-yl]-N-methyl-isobutyramide]	–	–
1.62 nM	14.5 nM	CC(=O)N1CCCC(c2cc(-c3ccc(F)cc3C)c(N(C)C(=O)C(C)(C)c3cc(C(F)(F)F)cc(C(F)(F)F)c3)cn2)C1 (racemic) [Example 13, (RS)-N-[1′-Acetyl-4-(4-fluoro-2-methyl-phenyl)-1′,2′,3′,4′,5′,6′-hexahydro-[2,3′]bipyridinyl-5-yl]-2-(3,5-bis-trifluoromethyl-phenyl)-N-methyl-isobutyramide]	–	–
0.617 nM	2.63 nM	Cc1cc(F)ccc1-c1cc(C2=CCN(S(C)(=O)=O)CC2)ncc1N(C)C(=O)C(C)(C)c1cc(C(F)(F)F)cc(C(F)(F)F)c1 [Example 10, 2-(3,5-Bis-trifluoromethyl-phenyl)-N-[4-(4-fluoro-2-methyl-phenyl)-1′-methanesulfonyl-1′,2′,3′,6′-tetrahydro-[2,4′]bipyridinyl-5-yl]-N-methyl-isobutyramide]	–	–
1.15 nM	14.1 nM	Cc1cc(F)ccc1-c1cc(C2=CCSCC2)ncc1N(C)C(=O)C(C)(C)c1cc(C(F)(F)F)cc(C(F)(F)F)c1 [Example 14, 2-(3,5-Bis-trifluoromethyl-phenyl)-N-[6-(3,6-dihydro-2H-thiopyran-4-yl)-4-(4-fluoro-2-methyl-phenyl)-pyridin-3-yl]-N-methyl-isobutyramide]	–	–
1.1 nM	6.46 nM	Cc1cc(F)ccc1-c1cc(C2CCN(S(C)(=O)=O)CC2)ncc1N(C)C(=O)C(C)(C)c1cc(C(F)(F)F)cc(C(F)(F)F)c1 [Example 11, 2-(3,5-Bis-trifluoromethyl-phenyl)-N-[4-(4-fluoro-2-methyl-phenyl)-1′-methanesulfonyl-1′,2′,3′,4′,5′,6′-hexahydro-[2,4′]bipyridinyl-5-yl]-N-methyl-isobutyramide]	–	–
1.2 nM	6.92 nM	Cc1cc(F)ccc1-c1cc(-c2cccc(CO)c2)ncc1N(C)C(=O)C(C)(C)c1cc(C(F)(F)F)cc(C(F)(F)F)c1 [Example 7, 2-(3,5-Bis-trifluoromethyl-phenyl)-N-[4-(4-fluoro-2-methyl-phenyl)-6-(3-hydroxymethyl-phenyl)-pyridin-3-yl]-N-methyl-isobutyramide]	–	–
0.589 nM	21.4 nM	Cc1cc(F)ccc1-c1cc(C2CCCN(S(C)(=O)=O)C2)ncc1N(C)C(=O)C(C)(C)c1cc(C(F)(F)F)cc(C(F)(F)F)c1 (racemic) [Example 12, (RS)-2-(3,5-Bis-trifluoromethyl-phenyl)-N-[4-(4-fluoro-2-methyl-phenyl)-1′-methanesulfonyl-1′,2′,3′,4′,5′,6′-hexahydro-[2,3′]bipyridinyl-5-yl]-N-methyl-isobutyramide]	–	–
1.23 nM	9.12 nM	CN(C(=O)C(C)(C)c1cc(C(F)(F)F)cc(C(F)(F)F)c1)c1cnc(OC(CO)CO)cc1-c1ccccc1Cl [Example 2, 2-(3,5-Bis-trifluoromethyl-phenyl)-N-[4-(2-chloro-phenyl)-6-(2-hydroxy-1-hydroxymethyl-ethoxy)-pyridin-3-yl]-N-methyl-isobutyramide]	–	–
1.29 nM	16.2 nM	Cc1cc(F)ccc1-c1cc(-c2cccnc2)ncc1N(C)C(=O)C(C)(C)c1cc(C(F)(F)F)cc(C(F)(F)F)c1 [Example 5, 2-(3,5-Bis-trifluoromethyl-phenyl)-N-[4-(4-fluoro-2-methyl-phenyl)-[2,3′]bipyridinyl-5-yl]-N-methyl-isobutyramide]	–	–
0.562 nM	19.5 nM	CN(C(=O)C(C)(C)c1cc(C(F)(F)F)cc(C(F)(F)F)c1)c1cnc(OCCO)cc1-c1ccccc1Cl [Example 1, 2-(3,5-Bis-trifluoromethyl-phenyl)-N-[4-(2-chloro-phenyl)-6-(2-hydroxy-ethoxy)-pyridin-3-yl]-N-methyl-isobutyramide]	–	–
0.977 nM	24.5 nM	Cc1cc(F)ccc1-c1cc(-c2ccc[n+]([O-])c2)ncc1N(C)C(=O)C(C)(C)c1cc(C(F)(F)F)cc(C(F)(F)F)c1 [Example 6, 2-(3,5-Bis-trifluoromethyl-phenyl)-N-[4-(4-fluoro-2-methyl-phenyl)-1′-oxy-[2,3′]bipyridinyl-5-yl]-N-methyl-isobutyramide]	–	–
2.34 nM	8.51 nM	Cc1cc(F)ccc1-c1cc(SCCO)ncc1N(C)C(=O)C(C)(C)c1cc(C(F)(F)F)cc(C(F)(F)F)c1 [Example 4, 2-(3,5-Bis-trifluoromethyl-phenyl)-N-[4-(4-fluoro-2-methyl-phenyl)-6-(2-hydroxy-ethylsulfanyl)-pyridin-3-yl]-N-methyl-isobutyramide]	–	–
–	–	CC(=O)N(C)C1(c2ccccc2)CCN(CCC[C@]2(c3ccc(Cl)c(Cl)c3)CCCN(C(=O)c3ccccc3)C2)CC1 [SR 142,801, Osanetant]	active on positive symptoms of schizophrenia	inactive in the treatment of negative symptoms
